Reference: ChEMBL document CHEMBL5528035, “Design, Synthesis, and Biological Evaluation for First GPX4 and CDK Dual Inhibitors” (J Med Chem, 2024)
Calls of active or inactive are those of the source. The calls are words filed in the database; no cut-off is given here.

Key:
[1] = molecular target: CDK6/cyclin D3 (Homo sapiens) (UniProt P30281+Q00534); assay: Inhibition of CDK6/CyclinD3 (unknown origin) at 100 nM preincubated for 15 mins followed by substrate and ATP addition incubated for 10 mins by ADP-glo luminescent assay relative to control; type: protein-complex assay; settings: time 25.0 min
[2] = test system: MDA-MB-231; assay: Antitumor activity against human MDA-MB-231 cells xenografted in BALB/c mouse assessed as tumor growth inhibition at 20 mg/kg,ip administrated for 21 consecutive days; type: functional; settings: read-out: TGI
[3] = test system: MDA-MB-231; assay: Induction of cell cycle arrest in human MDA-MB-231 cells assessed as accumulation of cells at G1 phase at 0.5 to 2 uM incubated for 24 hrs by RNase/PI staining based flow cytometric analysis; type: functional; settings: dose 0.5-2 µM
[4] = test system: MDA-MB-231; assay: Antitumor activity against human MDA-MB-231 cells xenografted in BALB/c mouse assessed as tumor growth inhibition at 40 mg/kg,ip administrated for 21 consecutive days; type: functional; settings: read-out: TGI
[5] = Toxicity in BALB/c mouse xenografted with human MDA-MB-231 cells assessed as morphological change in heart at 40 mg/kg,ip administrated for 21 consecutive days by hematoxylin and eosin staining based analysis; type: organism-based; settings: in vivo
[6] = test system: MDA-MB-231; assay: Antitumor activity against human MDA-MB-231 cells xenografted in BALB/c mouse assessed as decrease in phosphorylated Rb expression at 40 mg/kg,ip administrated for 21 consecutive days by immunohistochemistry; type: functional, organism-based
[7] = test system: MDA-MB-231; assay: Induction of ferroptosis in human MDA-MB-231 cells assessed as increase in intracellular ferrous ion level at 0.5 to 2 uM incubated for 24 hrs by ferroOrange probe based flow cytometric analysis; type: functional, cell-based; settings: dose 0.5-2 µM
[8] = test system: MDA-MB-231; assay: Induction of apoptosis in human MDA-MB-231 cells incubated for 24 hrs by annexin-V-FITC/PI staining based flow cytometric analysis; type: functional, cell-based
[9] = test system: HCT-116; assay: Induction of cell cycle arrest in human HCT-116 cells assessed as accumulation of cells at G1 phase at 0.5 to 2 uM incubated for 24 hrs by RNase/PI staining based flow cytometric analysis; type: functional; settings: dose 0.5-2 µM
[10] = Toxicity in BALB/c mouse xenografted with human MDA-MB-231 cells assessed as morphological change in lung at 20 mg/kg,ip administrated for 21 consecutive days by hematoxylin and eosin staining based analysis; type: organism-based; settings: in vivo
[11] = Half life in human liver microsomes in presence of NADPH incubated for 5 to 45 mins by LC/MS analysis; type: ADME, Microsome; settings: time 5-45 min
[12] = Toxicity in BALB/c mouse xenografted with human MDA-MB-231 cells assessed as morphological change in liver at 20 mg/kg,ip administrated for 21 consecutive days by hematoxylin and eosin staining based analysis; type: organism-based; settings: in vivo
[13] = test system: HCT-116; assay: Induction of cell cycle arrest in human HCT-116 cells assessed as downregulation of phoshorylated Rb at 0.5 to 2 uM incubated for 24 hrs by Western blotting analysis; type: functional, cell-based; settings: dose 0.5-2 µM
[14] = test system: HCT-116; assay: Induction of ferroptosis in human HCT-116 cells assessed as increase in intracellular lipid peroxide level incubated for 24 hrs by […] staining based confocal laser scanning microscopic analysis; type: functional, cell-based
[15] = test system: HCT-116; assay: Induction of apoptosis in human HCT-116 cells assessed as upregulation of Bax expression at 0.5 to 2 uM incubated for 24 hrs by Western blotting analysis; type: functional, cell-based; settings: dose 0.5-2 µM
[16] = test system: MDA-MB-231; assay: Induction of ferroptosis in human MDA-MB-231 cells assessed as increase in intracellular ferrous ion level at 0.5 to 2 uM incubated for 24 hrs by ferroOrange probe based confocal laser scanning microscopic analysis; type: functional, cell-based; settings: dose 0.5-2 µM
[17] = Toxicity in BALB/c mouse xenografted with human MDA-MB-231 cells assessed as morphological change in kidney at 40 mg/kg,ip administrated for 21 consecutive days by hematoxylin and eosin staining based analysis; type: organism-based; settings: in vivo
[18] = Toxicity in BALB/c mouse xenografted with human MDA-MB-231 cells assessed as morphological change in liver at 40 mg/kg,ip administrated for 21 consecutive days by hematoxylin and eosin staining based analysis; type: organism-based; settings: in vivo
[19] = AUC (0 to t) in Sprague-Dawley rat at 10 mg/kg,iv administration measured upto 24 hrs by LC-MS/MS analysis; type: ADME, organism-based; settings: in vivo
[20] = Toxicity in BALB/c mouse xenografted with human MDA-MB-231 cells assessed as morphological change in heart at 20 mg/kg,ip administrated for 21 consecutive days by hematoxylin and eosin staining based analysis; type: organism-based; settings: in vivo

In the case of COc1ccc2c(c1)NC(=O)/C2=C1\Nc2ccccc2\C1=N/OCCCNC(=O)CCn1cc(COc2ccc(N(C(=O)CCl)C(C(=O)NCCc3ccccc3)c3cccs3)cc2Cl)nn1 (stereo not given), the inhibition [1] is reported as 51.8%, the inhibition in vivo at 20 mg/kg [2] is reported as 67.8% and the Activity [3] is reported as “Active”. For the same molecule, the inhibition in vivo at 40 mg/kg [4] was 83.3%, the Activity [5] was “Non-Toxic” and the Activity [6] was “Active”. For the same molecule, the Activity [7] was “Active”, the Activity [8] was “Dose-Dependent Effect” and the Activity [9] was “Active”. For the same molecule, the Activity [10] was “Non-Toxic”, the half-life [11] was 58.7 min and the Activity [12] was “Non-Toxic”. The Activity [13] was “Active”, the Activity [14] was “Dose-Dependent Effect” and the Activity [15] was “Active”. For the same molecule, the Activity [16] was “Active”, the Activity [17] was “Non-Toxic” and the Activity [18] was “Non-Toxic”. The AUC(0-t) at 24 h [19] was 15700 ng·h/mL and the Activity [20] was “Non-Toxic”.
